Patent US20180064729A1, “Treatment of Pulmonary Disease” (Intercept Pharmaceuticals, Inc., priority 2012, published 2018)
Entries after “also recorded” stand apart in the source; their conditions may differ.

Experiments:
[1] = test system: C57B1/6 wild-type and FXR−/− mice; test: murine bleomycin-induced pulmonary fibrosis model; assay type: in vivo; settings: bleomycin day 0; 5 mg/kg daily; 22 days
Protocol: The murine model of bleomycin-induced pulmunary fibrosis was induced in C57B1/6 wild-type and FXR^−/− mice (females, 6-8 weeks old). Groups of treatment included: • WT mice: A—saline (day 0); B—bleomycin (day 0); C—bleomycin (day 0)- • Compound 1 (also referred to as 6ECDCA) (5 mg/kg, daily) • FXR^−/− mice: D—saline (day 0); E—bleomycin (day 0); F—bleomycin (day 0) • Compound 1 (also referred to as 6ECDCA) (5 mg/kg, daily).
After 22 days, the mice were sacrified and the subsequent analyses were performed: (1) H&E and […] staining on lung sections; (2) Quantification of collagen I into the lung by qRT-PCR and Sircol collagen assay; (3) FXR, SHP and CXCL12 mRNA quantification by qRT-PCR; and (4) CXCL12 protein quantification by ELISA on lung homogenates.

[2] = test system: murine lung fibroblast cell line (ATCC number CCL-206); test: Col I and CXCL12 expression in stimulated lung fibroblasts (qRT-PCR, ELISA, Sircol); assay type: cell-based; settings: 24 hours
Protocol: FXR activation reduced the production of collagen I and […] by resident fibroblasts. Specifically, after a 24 hour period of starving, cells from the murine lung fibroblast cell line (ATCC number CCL-206) were stimulated with or without TGFβ1 (10 ng/ml) and 6ECDCA (10 μM) for 24 hours and then the FXR, SHP and Col I gene expression was analyzed by qRT-PCR. After a 24 hours period of starving, cells from the murine lung fibroblast cell line (ATCC number CCL-206) were stimulated with or without TNFα (10 ng/ml) and 6ECDCA (10 μM) for 24 hours and then the FXR, SHP and CXCL12 gene expression was analyzed by qRT-PCR.
The downregulation of Col I and CXCL12 induced by 6ECDCA was FXR-mediated. After an overnight period of starving, murine lung fibroblast cell line (ATCC number CCL-206) was stimulated with or without TGFβ1 (10 ng/ml) and 6ECDCA (1 μM) for 24 hours—with and without block of the FXR by siRNA—and then the FXR, SHP, Col I and CXCL12 gene expression was analyzed by qRT-PCR. CXCL12 and Col I secretion in the supernatants was analyzed by ELISA and the Sircol collagen assay, respectively.
The downreguation of Col I and CXCL12 induced by 6ECDCA was SHP-mediated. Specifically, transfection of pulmonary fibroblasts with vector carrying the HA-SHP chimera was carried out to induce a SHP overexpression (WB analysis of the HA-SHP expression). Col I and CXCL12 expression (by qRT-PCR) was analyzed at baseline and after stimulation with TGFβ1. SHP overexpression was sufficient to down-regulate the Col I and CXCL12 expression, basically and after stimulation with TGFβ1.
After an overnight period of starving, murine lung fibroblast cell line (ATCC number CCL-206) were stimulated with/without TGFβ1 (10 ng/ml) and 6ECDCA (1 μM) for 24 hours—with and without block of the SHP by siRNA—and then the FXR, SHP, Col I and CXCL12 gene expression was analyzed by qRT-PCR. CXCL12 and Col I secretion in the supernatants was analyzed by ELISA and the Sircol collagen assay, respectively.

[3] = test system: DSS (Dahl salt-sensitive) rat; test: Dahl salt-sensitive (DSS) rat high salt diet study; assay type: in vivo
Excerpt: The rodent model for salt-sensitive hypertension was a DSS (Dahl salt-sensitive) rat (e.g., Rapp). […] Specifically, the rodent models used for the study were male 4-week old DSS rats (e.g., SS/JrHsd) from Harlan Laboratories. The normal diet of the DSS rats was 0.49% NaCl and the high salt diet was 8% NaCl (e.g., Teklad Custom Research Diet). The rats were divided into four groups (herein referred to as DSS study rats): • Group 1; Normal salt diet (1% Methylcellulose) (N=6) • Group 2; High-salt diet (Vehicle; 1% MC) (N=9) • Group 3; High-salt diet (6ECDCA 10mg/kg/day) (N=6) • Group 4; High-salt diet (6ECDCA 30mg/kg/day) (N=9)
The following analyses were carried out: ADMA and NO levels in serum and urine and tissues (e.g., liver, muscle and kidney), blood pressure and heart rate, fasting blood glucose and insulin (HOMA-IR), ipGTT (IR-index), and urinary protein and creatinine. Additional studies such as electrolytes (Na+), histological analysis and TGFbeta expression in kidney, DDAH expression and activity in liver, skeletal muscle and kidney, and Akt-phosphorylation level in liver, skeletal muscle and kidney can also be carried out.
6ECDCA was administered orally daily for 6-weeks. Blood and urine collections were performed at week 0 and week 6 and analyzed by methods known in the art. Blood pressure measurement was performed at week 0, 1, 2, 4 and 6 by tail cuff devices, which was performed on conscious models and was non-invasive. The blood pressure was also obtained via catheter, which was performed when the model was sacrificed. The glucose challenge test was performed at week 5. Renal function was analyzed by measuring the urinary volume, protein and creatinine in a 24 h-urine sample. Histological analysis was performed using the Masson&Trichrome staining. Insulin resistance was analyzed using the ipGTT test and the HOMA/IR index. The ADMA and NO levels were detected in blood concentration and urinary excretion (FIG. 1).

[4] = test system: Sprague-Dawley (SD) rats; test: MCT-induced pulmonary hypertensive rat model: right ventricular hypertrophy index; assay type: in vivo; settings: day 28; MCT 60 mg/kg s.c.; OCA 30 mg/kg oral gavage, tadalafil 10 mg/kg/day in drinking water
Protocol: (§1) Pulmonary hypertension was induced by subcutaneous injection of 60 mg/kg monocrotaline (MCT) (Sigma Chemicals, St. Louis, Mo., USA) dissolved in 0.5 N HCl solution. Briefly, male Sprague-Dawley (SD) rats, weighing between 200 to 250 g, were housed in climate-controlled conditions with a 12 hours light:12 hours dark cycle, with free access to chow and water. […]

[5] = test system: small pulmonary arteries; test: MCT-induced pulmonary hypertensive rat model: pulmonary artery wall thickness; assay type: in vivo; settings: for MCT-induced increase in wall thickness (WT): OCA 30 mg/kg oral, p<0.00001; for wall thickness (WT) in small pulmonary arteries: MCT 60 mg/kg s.c. alone
Protocol: (§2) Pulmonary hypertension was induced by subcutaneous injection of 60 mg/kg monocrotaline (MCT) (Sigma Chemicals, St. Louis, Mo., USA) dissolved in 0.5 N HCl solution. Briefly, male Sprague-Dawley (SD) rats, weighing between 200 to 250 g, were housed in climate-controlled conditions with a 12 hours light:12 hours dark cycle, with free access to chow and water. SD rats were randomly allocated to the following groups: • 1) SD rats left untreated and sacrificed after 7 (n=5) or 28 (n=5) days; • 2) SD rats receiving a single subcutaneous injection of vehicle MCT sacrificed after 7 days (n=5); • 3) SD rats receiving a single subcutaneous injection of vehicle MCT sacrificed after 28 days (n=10); • 4) SD rats receiving a single subcutaneous injection of MCT [60 mg/kg, n=5] sacrificed after 7 days; • 5) SD rats receiving single subcutaneous injection of MCT [60 mg/kg, n=15] sacrificed after 28 days; • 6) SD rats receiving single subcutaneous injection of MCT [60 mg/kg] and immediately treated with OCA (30 mg/kg, daily 5 days a week, by oral gavage, n=5) for 7 days]; • 7) SD rats receiving single subcutaneous injection of MCT [60 mg/kg] and immediately treated with OCA (30 mg/kg, daily 5 days a week, by oral gavage, n=10) for 28 days]; • 8) SD rats receiving single subcutaneous injection of MCT [60 mg/kg] and immediately treated with tadalafil (10 mg/kg/day, in drinking water, n=5) for 7 days]; • 9) SD rats receiving single subcutaneous injection of MCT [60 mg/kg] and immediately treated with tadalafil (10 mg/kg/day, in drinking water, n=10) for 28 days]; • 10) SD rats receiving single subcutaneous injection of MCT [60 mg/kg] and immediately treated with vehicle OCA (by oral gavage, n=5) for 7 days; • 11) SD rats receiving single subcutaneous injection of MCT [60 mg/kg] and immediately treated with vehicle OCA (by oral gavage, n=10) for 28 days.
Pulmonary vascular remodeling was evaluated by determining wall thickness (WT). Lungs were fixed in 10% buffered formalin and embedded in paraffin, then sectioned at a thickness of 5 μm and stained with hematoxylin-eosin. Ten pulmonary arteries were examined for structural integrity using a morphometric image analysis system independently by two pathologists who were blinded to animal grouping. WT, vessel diameter (ED), were determined. WT(%)=(2×WT/ED)×100%. More than 50 images of pulmonary arterioles (25 to 100 μm diameters) from at least three tissue sections at a magnification of ×20 were captured using amicroscopic digital camera and analyzed using an image analysisprogram (Fiji-win32). The external diameter (D) and medial thickness oneither side (M1 and M2) were measured along the shortest diameter. The medial wall thickness was expressed as follows: % wall thickness=[(M1+M2)/2/D]×100.

[6] = test system: lung mRNA of inflammation, endothelium-proliferative and NO-signaling genes; test: MCT-induced pulmonary hypertensive rat model: lung mRNA expression by qRT-PCR; assay type: in vivo
Protocol: as §2
mRNA expression analysis of genes involved in inflammation [interleukin 6 (IL-6), monocyte chemoattractant protein-1 (MCP-1/CCL2), cyclooxygenase-2], endothelium-proliferative factors (vascular endothelial growth factor (VEGF) and angiotensin-converting enzyme 2 (ACE2)), NO-signaling [endothelial nitric oxide synthase (eNOS), phosphodiesterase type 5 (PDES), cyclic guanylate cyclase subunits type 1a3 and 1b3, GC1a3, GC1b3, protein kinase G 1, PKG1], were performed. Isolation of RNA from lung, qRT-PCR was performed according to the fluorescent TaqMan methodology. PCR primers and probes specific for mRNA sequences of aforementioned target genes and of the reference gene 18S rRNA was purchased from Life Technologies (Paisley, UK).

[7] = test system: Sprague-Dawley (SD) rats; test: MCT-induced pulmonary hypertensive rat model: survival (Kaplan-Meier); assay type: in vivo; settings: MCT-treated rats, study period 28 days
Protocol: as §1
During the study period, the animals were observed daily for mortality, and median survival time in each group was calculated with Kaplan-Meier analysis.

CC[C@H]1[C@@H](O)[C@@H]2[C@H](CC[C@]3(C)[C@@H]([C@H](C)CCC(=O)O)CC[C@@H]23)[C@@]2(C)CC[C@@H](O)C[C@@H]12 [Compound 1, 3α,7α-dihydroxy-6α-ethyl-5β-cholanic acid]
pulmonary fibrosis [1]: ameliorates the pulmonary fibrosis
downregulation of Col I and CXCL12, dependence on SHP ([2]; TGFβ1 10 ng/ml, 6ECDCA 1 μM, SHP overexpression / block of SHP by siRNA): SHP-mediated
downregulation of Col I and CXCL12, dependence on FXR ([2]; TGFβ1 10 ng/ml, 6ECDCA 1 μM, with and without block of FXR by siRNA): FXR-mediated
production of collagen I by resident fibroblasts (Col I gene expression) ([2]; TGFβ1 10 ng/ml, 6ECDCA 10 μM): reduced
production of CXCR12 by resident fibroblasts (CXCL12 gene expression) ([2]; TNFα 10 ng/ml, 6ECDCA 10 μM): reduced
ADMA levels in serum and urine [3]: did not reduce ADMA
albuminuria induced by high salt diet [3]: reduced albuminuria
IR-index reduction compared to the vehicle ([3]; 10 mg/kg): 38%
body weight ([3]; 10 mg/kg and 30 mg/kg, seven week study): did not affect the body weight
IR-index reduction compared to the vehicle ([3]; 30 mg/kg): 21%
lung weight (pulmonary congestion) ([3]; 30 mg/kg): reduced lung weight
renal protection ([3]; 30 mg/kg): showed renal protection
heart rate ([3]; 10 and 30 mg/kg/day oral): did not affect heart rate
blood pressure ([3]; 10 and 30 mg/kg/day oral, listed as 6ECDCA): did not affect heart rate blood pressure or reduce blood pressure; also recorded: did not reduce blood pressure
glucose levels ([3]; GTT): trended lower
insulin levels ([3]; GTT): trended lower
insulin sensitivity (Insulin Resistance-Index) ([3]; GTT at week 5): reversed insulin resistance
right ventricular hypertrophy index (RVH), RV/(LV+S) [4]: completely normalized RVH
MCT-induced increase in wall thickness (WT) ([5]; day 7): markedly reduced
MCT-induced increase in wall thickness (WT) ([5]; day 28): markedly reduced
PKG1 mRNA expression ([6]; 28-day treatment, p=0.01 vs. MCT): significantly upregulates
GC1a3 mRNA expression ([6]; after 7 days of OCA dosing): significant increase
PDES mRNA expression ([6]; after 7 days of OCA dosing): significant increase
PKG1 mRNA expression ([6]; after 7 days of OCA dosing): significant increase
MCT-induced MCP-1 expression ([6]; day 7, lung): significantly reduced
IL-6 mRNA expression ([6]; day 28, lung): significantly reduced
MCT-induced MCP-1 expression ([6]; day 28, lung): significantly reduced
VEGF mRNA expression ([6]; day 28, p=0.001 vs. MCT): significantly upregulate
ACE2 mRNA expression ([6]; day 28, p=0.038 vs. MCT): significantly upregulate
mortality rate [7]: 13.2%

C[C@H]1C(=O)O[C@@H]2CCN3CC=C(COC(=O)[C@](C)(O)[C@]1(C)O)[C@H]23 [MCT, monocrotaline, reference compound]
wall thickness (WT) in small pulmonary arteries ([5]; day 7, control 19±0.7): 33±0.8%
wall thickness (WT) in small pulmonary arteries ([5]; day 28, control 16.8±0.8%): 32.6±0.7%
mortality rate [7]: 24%
